From patent publication US9708314B2, “Heterocyclic amide compound” (NISSAN CHEMICAL INDUSTRIES, LTD., priority 2013, dated 2017)

Tests used:
Assay type in all cases: in vivo
[1] = test system: Zea mays; assay: Test Example 4: effect on crop by application to foliage (diluvial soil, plastic box); settings: for b (Zea mays) effect on crop: application to foliage, application herbicide amount 320 g/ha; for b: Application herbicide amount 320 g/ha, effect on crop
Procedure, shortened: (§1)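 Emulsion-formulated compound, diluted to a predetermined g/ha dose, applied by small sprayer to leaves and stems of 14-day-old seedlings grown in sterilized diluvial soil. Effect rated on 0–5 herbicidal-ratio scale three weeks on.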

[2] = test system: Glycine max; assay: as above; settings: for c (Glycine max) effect on crop: application to foliage, application herbicide amount 320 g/ha; for c: Application herbicide amount 320 g/ha, effect on crop
Procedure, shortened: as §1

[3] = test system: Brassica campestris L.; assay: as above; settings: for g (Brassica campestris L.) effect on crop: application to foliage, application herbicide amount 320 g/ha; for g: Application herbicide amount 320 g/ha, effect on crop
Procedure, shortened: as §1

[4] = test system: directly sowed Oryza sativa; assay: as above; settings: for d (directly sowed Oryza sativa) effect on crop: application to foliage, application herbicide amount 320 g/ha; for d: Application herbicide amount 320 g/ha, effect on crop
Procedure, shortened: as §1

[5] = test system: Triticum aestivum; assay: as above; settings: for e (Triticum aestivum) effect on crop: application to foliage, application herbicide amount 320 g/ha; for e: Application herbicide amount 320 g/ha, effect on crop
Procedure, shortened: as §1

[6] = test system: Beta vulgaris ssp. vulgaris; assay: as above; settings: for f (Beta vulgaris ssp. vulgaris) effect on crop: application to foliage, application herbicide amount 320 g/ha; for f: Application herbicide amount 320 g/ha, effect on crop
Procedure, shortened: as §1

[7] = test system: Echinochloa oryzacola Vasing.; assay: Test Example 2: herbicidal activity, application during weed generation in submerged conditions; settings: Eighteenth Table; application herbicide amount 320 g/ha
Procedure, shortened: (§2)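 Post-emergence application under submerged conditions: water-diluted emulsion dosed onto the water surface (g/ha) when weeds reach one- to two-leaf stage. Soil flooded to 4 cm; greenhouse 25–30 °C. Herbicidal ratio graded in six classes, 0 (≤5%) to 5 (≥90%), at three weeks.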

[8] = test system: Scirpus juncoides; assay: as above; settings: Eighteenth Table; application herbicide amount 320 g/ha
Procedure, shortened: as §2

[9] = test system: Monochoria vaginalis; assay: as above; settings: Eighteenth Table; application herbicide amount 320 g/ha
Procedure, shortened: as §2

| SMILES | b (Zea mays) effect on crop [1] | c (Glycine max) effect on crop [2] | g (Brassica campestris L.) effect on crop [3] | d (directly sowed Oryza sativa) effect on crop [4] | e (Triticum aestivum) effect on crop [5] | f (Beta vulgaris ssp. vulgaris) effect on crop [6] | A (Echinochloa oryzicola Vasing.) herbicidal ratio grade [7] | B (Scirpus juncoides) herbicidal ratio grade [8] | C (Monochoria vaginalis) herbicidal ratio grade [9] | b [1] | c [2] | g [3] | d [4] | e [5] | f [6] |
| --- | --- | --- | --- | --- | --- | --- | --- | --- | --- | --- | --- | --- | --- | --- | --- |
| COCc1nnc2c(C(=O)Nc3nnc(C)o3)ccc(C(F)(F)F)n12 [1-015] | 0 (Herbicidal ratio of 5% or less (almost no effect)) | 1 (Herbicidal ratio of 5% or more and less than 20%) | 4 (Herbicidal ratio of 70% or more and less than 90%) | 4 (Herbicidal ratio of 70% or more and less than 90%) | 2 (Herbicidal ratio of 20% or more and less than 40%) | 5 (Herbicidal ratio of 90% or more (almost completely withered)) | 4 (Herbicidal ratio of 70% or more and less than 90%) | 2 (Herbicidal ratio of 20% or more and less than 40%) | 1 (Herbicidal ratio of 5% or more and less than 20%) | – | – | – | – | – | – |
| Cc1nnc(NC(=O)c2ccc(C(F)(F)F)n3c(C4CCCC4)nnc23)o1 [1-026] | 0 (Herbicidal ratio of 5% or less (almost no effect)) | 0 (Herbicidal ratio of 5% or less (almost no effect)) | 3 (Herbicidal ratio of 40% or more and less than 70%) | 3 (Herbicidal ratio of 40% or more and less than 70%) | 1 (Herbicidal ratio of 5% or more and less than 20%) | 5 (Herbicidal ratio of 90% or more (almost completely withered)) | 3 (Herbicidal ratio of 40% or more and less than 70%) | 1 (Herbicidal ratio of 5% or more and less than 20%) | 0 (Herbicidal ratio of 5% or less (almost no effect)) | – | – | – | – | – | – |
| Cc1nnc(NC(=O)c2ccc(C(F)(F)F)n3c(C4CC4)nnc23)o1 [1-010] | 0 (Herbicidal ratio of 5% or less (almost no effect)) | 1 (Herbicidal ratio of 5% or more and less than 20%) | 3 (Herbicidal ratio of 40% or more and less than 70%) | 4 (Herbicidal ratio of 70% or more and less than 90%) | 1 (Herbicidal ratio of 5% or more and less than 20%) | 5 (Herbicidal ratio of 90% or more (almost completely withered)) | 4 (Herbicidal ratio of 70% or more and less than 90%) | 1 (Herbicidal ratio of 5% or more and less than 20%) | 4 (Herbicidal ratio of 70% or more and less than 90%) | – | – | – | – | – | – |
| Cc1nnc(NC(=O)c2ccc(C(F)(F)F)n3c(C=O)nnc23)o1 [1-068] | – | – | – | – | – | – | 2 (Herbicidal ratio of 20% or more and less than 40%) | 2 (Herbicidal ratio of 20% or more and less than 40%) | 2 (Herbicidal ratio of 20% or more and less than 40%) | 2 (Herbicidal ratio of 20% or more and less than 40%) | 0 (Herbicidal ratio of 5% or less (almost no effect)) | 4 (Herbicidal ratio of 70% or more and less than 90%) | 3 (Herbicidal ratio of 40% or more and less than 70%) | 1 (Herbicidal ratio of 5% or more and less than 20%) | 4 (Herbicidal ratio of 70% or more and less than 90%) |
| Cc1nnc(NC(=O)c2ccc(C(F)(F)F)n3c(N(C)C)nnc23)o1 [1-076] | – | – | – | – | – | – | 2 (Herbicidal ratio of 20% or more and less than 40%) | 0 (Herbicidal ratio of 5% or less (almost no effect)) | 4 (Herbicidal ratio of 70% or more and less than 90%) | 0 (Herbicidal ratio of 5% or less (almost no effect)) | 3 (Herbicidal ratio of 40% or more and less than 70%) | 4 (Herbicidal ratio of 70% or more and less than 90%) | 3 (Herbicidal ratio of 40% or more and less than 70%) | 3 (Herbicidal ratio of 40% or more and less than 70%) | 5 (Herbicidal ratio of 90% or more (almost completely withered)) |
| Cc1nnc(NC(=O)c2ccc(C(F)(F)F)n3c(C(C)[S+](C)[O-])nnc23)o1 (stereo not drawn) [1-079] | – | – | – | – | – | – | 4 (Herbicidal ratio of 70% or more and less than 90%) | 3 (Herbicidal ratio of 40% or more and less than 70%) | 4 (Herbicidal ratio of 70% or more and less than 90%) | 4 (Herbicidal ratio of 70% or more and less than 90%) | 1 (Herbicidal ratio of 5% or more and less than 20%) | 5 (Herbicidal ratio of 90% or more (almost completely withered)) | 5 (Herbicidal ratio of 90% or more (almost completely withered)) | 4 (Herbicidal ratio of 70% or more and less than 90%) | 5 (Herbicidal ratio of 90% or more (almost completely withered)) |
| CC[S+]([O-])c1nnc2c(C(=O)Nc3nnc(C)o3)ccc(C(F)(F)F)n12 (stereo not drawn) [1-034] | 5 (Herbicidal ratio of 90% or more (almost completely withered)) | 1 (Herbicidal ratio of 5% or more and less than 20%) | 4 (Herbicidal ratio of 70% or more and less than 90%) | 4 (Herbicidal ratio of 70% or more and less than 90%) | 2 (Herbicidal ratio of 20% or more and less than 40%) | 5 (Herbicidal ratio of 90% or more (almost completely withered)) | 4 (Herbicidal ratio of 70% or more and less than 90%) | 3 (Herbicidal ratio of 40% or more and less than 70%) | 4 (Herbicidal ratio of 70% or more and less than 90%) | – | – | – | – | – | – |
| CCCc1nnc2c(C(=O)Nc3nnc(C)o3)ccc(C(F)(F)F)n12 [1-024] | 0 (Herbicidal ratio of 5% or less (almost no effect)) | 2 (Herbicidal ratio of 20% or more and less than 40%) | 4 (Herbicidal ratio of 70% or more and less than 90%) | 4 (Herbicidal ratio of 70% or more and less than 90%) | 0 (Herbicidal ratio of 5% or less (almost no effect)) | 4 (Herbicidal ratio of 70% or more and less than 90%) | 4 (Herbicidal ratio of 70% or more and less than 90%) | 1 (Herbicidal ratio of 5% or more and less than 20%) | 0 (Herbicidal ratio of 5% or less (almost no effect)) | – | – | – | – | – | – |
| COCC[S+]([O-])c1nnc2c(C(=O)Nc3nnc(C)o3)ccc(C(F)(F)F)n12 (stereo not drawn) [1-073] | – | – | – | – | – | – | 2 (Herbicidal ratio of 20% or more and less than 40%) | 2 (Herbicidal ratio of 20% or more and less than 40%) | 1 (Herbicidal ratio of 5% or more and less than 20%) | 5 (Herbicidal ratio of 90% or more (almost completely withered)) | 0 (Herbicidal ratio of 5% or less (almost no effect)) | 3 (Herbicidal ratio of 40% or more and less than 70%) | 4 (Herbicidal ratio of 70% or more and less than 90%) | 3 (Herbicidal ratio of 40% or more and less than 70%) | 5 (Herbicidal ratio of 90% or more (almost completely withered)) |
| Cc1nnc(NC(=O)c2ccc(C(F)(F)F)n3c(N4CCOCC4)nnc23)o1 [1-096] | – | – | – | – | – | – | 4 (Herbicidal ratio of 70% or more and less than 90%) | 3 (Herbicidal ratio of 40% or more and less than 70%) | 4 (Herbicidal ratio of 70% or more and less than 90%) | 4 (Herbicidal ratio of 70% or more and less than 90%) | 4 (Herbicidal ratio of 70% or more and less than 90%) | 5 (Herbicidal ratio of 90% or more (almost completely withered)) | 4 (Herbicidal ratio of 70% or more and less than 90%) | 1 (Herbicidal ratio of 5% or more and less than 20%) | 5 (Herbicidal ratio of 90% or more (almost completely withered)) |
